Consider two compounds from patent US8809538B2, “Piperidine-containing compounds and use thereof” (Array BioPharma Inc., priority 2009, dated 2014).

Data set [1] concerns Crl: CD(SD) rats. Nature of the data set: Evaluation of hepatic damage by the compounds in rats. It is filed as in vivo. To be noted: 100 mg/kg orally once daily for 4 days, blood at the day after the final dosing. The protocol:
(3) Evaluation of Hepatic Damage by the Compounds in Rats
The compounds of the present invention were administered orally to male Crl: CD(SD) rats with four animals per group once daily for 4 days at dose levels of 0 (control) and 100 mg/kg to investigate hepatotoxicity. The compounds of the present invention were dissolved in 70% Wellsolve (solubilizer, Celeste Corporation) containing 30% DMSO (dimethyl sulfoxide) and administered orally at a dose volume of 10 mL/kg. The control group was treated with the vehicle at the same dosing volume.
Blood was drawn from the abdominal vein of each animal at the day after the final dosing. The plasma was separated by centrifugation at 13,684×g for 5 min at 4° C. The plasma concentration of aspartate aminotransferase (AST) and alanine aminotransferase (ALT), biochemical markers of hepatic damage, were measured.

For data set [2], the system named is high fat-fed obese mice (C57BL/6-DIO). Nature of the data set: Assay of an anti-diabetic effect in DIO (diet-induced obese) mice. It is filed as in vivo. The conditions noted are these: oral, 30 or 100 mg/kg b.i.d. for 15 days, overnight fasting state, dose-dependently. From the text: (1) Assay of an Anti-Diabetic Effect of the Compounds in DIO (Diet-Induced Obese) Mice
Male, 12-weeks old high fat-fed obese mice (C57BL/6-DIO, Charles River Japan) were orally administered with the compounds of the present invention twice a day for 15 days. During the experiment, mice were provided high fat pellet diet (D12492, Research Diets) and tap water from bottle of feed water ad libitum. On the first day of the experiment, blood samples were collected from tail vein using a microcapillary to measure plasma glucose concentration. Based on plasma glucose concentration, mice were divided into some groups (five mice per group) and started dosing. The dosing was carried out by oral gavage, after suspending the compounds of the present invention in the previously described vehicle. The control group received only the vehicle. After 15 days from starting the dosing, plasma samples were collected from tail vein at overnight fasting state. Plasma glucose and insulin levels were measured with commercial kits (glucose, Glucose CH-Test Wako®, Wako Pure Chemical Industries, Ltd.; insulin, Rat Insulin ELISA Kit, Morinaga Institute of Biological Science Inc.).

Data set [3] concerns rat transient focal cerebral ischemia model. Briefly: Assay of a neuroprotective effect in the rat transient focal cerebral ischemia model (MCA occlusion). In kind it is in vivo, Sprague Dawley rats. The conditions noted are these: 120 min MCA occlusion, 100 mg/kg orally 1 hour before and 12 hours after MCA occlusion, evaluated at 24 hours after MCA occlusion. Here is the method: (2) Assay of a Neuroprotective Effect of the Compound in the Rat Transient Focal Cerebral Ischemia Model.
Transient focal cerebral ischemia (120 min) was induced by intraluminal middle cerebral artery (hereinafter abbreviated to MCA) occlusion using the method of Koizumi et al., (in Japanese Journal of Stroke 1986; 8:1-8). Male Sprague Dawley rats (7 weeks old; Charles River Japan) were used. Under conditions of 30% oxygen and 70% air, the animals inhaled 2.5% halothane (Takeda Chemical Industries, Ltd.) through a halothane vaporizer (Shinano Works). Under the anesthesia, the left common carotid artery (hereinafter abbreviated to CCA), the external carotid artery (hereinafter abbreviated to ECA) and the internal carotid artery (hereinafter abbreviated to ICA) were isolated from surrounding connective tissue, then the CCA and the ECA were ligated with surgical thread. […] Immediately before MCA reperfusion neurological score of animals were observed using the method of Yonemori et al., (in J Cereb Blood Flow Metab 1996; 16: 973-80.) and animals that scored less than 5 were excluded due to insufficient occlusion. […]
At 24 hours after MCA occlusion, neurological score were evaluated. […] The cerebral infarct area was identified in scanned images and measured using image analysis software (Photoshop 5.5/NIH image 1.63) to determine the infarct area per slice. […]

With `CCOc1nc(C(=O)NCC2CCN(Cc3sc(-c4ccccn4)nc3CN(C)C)CC2)cc(N)c1C#N` [Example 118, 4-amino-5-cyano-N-((1-((4-((dimethylamino)methyl)-2-(pyridin-2-yl)thiazol-5-yl)methyl)piperidin-4-yl)methyl)-6-ethoxypicolinamide], in data set [1], the “plasma alanine aminotransferase (ALT) level” value is listed as “not increased” and the “plasma aspartate aminotransferase (AST) level” value was “not increased”.
As for `CCOc1nc(C(=O)NCC2CCN(Cc3cnc(-c4ccccn4)s3)CC2)cc(N)c1C#N` [Example 115, 4-amino-5-cyano-6-ethoxy-N-((1-((2-(pyridin-2-yl)thiazol-5-yl)methyl)piperidin-4-yl)methyl)picolinamide], in data set [2], the “fasted plasma glucose level” value was “significantly decreased” and the “fasted plasma insulin level” value is recorded as “significantly decreased”. In data set [3], the cerebral infarct volume entry is on record as “significant preventive effect” and the neurological score entry is on record as “significant preventive effect”. In addition, in data set [1], the “plasma alanine aminotransferase (ALT) level” value is “not increased” and the “plasma aspartate aminotransferase (AST) level” value is given as “not increased”.
